From ChEMBL document CHEMBL6153109, “Switching Roles─Exploring Concentration-Dependent Agonistic versus Antagonistic Behavior of Integrin Ligands” (J Med Chem, 2025)
Values belong to the molecule of their own block, whether it stands above or below them. Activity calls are given as the source filed them. The rule behind the calls is not given here.

Assays:
Integrin alpha-5/beta-1 [1] = biological target: T1, Integrin alpha-5/beta-1 (Homo sapiens, UniProt P05556+P08648); assay: Agonist activity at integrin alpha5beta1 in human OV-MZ-6 cells assessed as fold increase in FAK expression at 1 nM measured after 5 mins by Western blot analysis (reference value: 1); type: cell-based; details: filed as agonist
OV-MZ-6 [2] = assay: Inhibition of cell migration in human OV-MZ-6 cells expressing integrin alpha5beta1 assessed as delay in wound gap closure at 1 uM measured within 24 hrs by wound scratch assay; type: functional, cell-based
Integrin alpha-V/beta-3 [3] = biological target: T2, Integrin alpha-V/beta-3 (Homo sapiens, UniProt P05106+P06756); assay: Agonist activity at integrin alphaVbeta3 in human M21 cells assessed as increase in FAK expression at 1 nM incubated for 5 to 60 mins by Western blot analysis; type: cell-based; details: time 5-60 min
Integrin alpha-V/beta-3 [4] = biological target: T2, Integrin alpha-V/beta-3; assay: Agonist activity at integrin alphaVbeta3 in human M21 cells assessed as increase in p-FAK expression at 1 nM incubated for 5 to 60 mins by Western blot analysis; type: cell-based; details: time 5-60 min
OV-MZ-6 [5] = assay: Inhibition of cell adhesion in human OV-MZ-6 cells expressing integrin alpha5beta1 at 1 uM measured after 48 hrs by microscopic imaging analysis; type: functional, cell-based
M21 = assay: Inhibition of cell migration in human M21 cells expressing integrin alphaVbeta3 assessed as delay in wound gap closure at 1 to 1000 nM measured after 9 to 72 hrs by wound scratch assay; type: functional, cell-based; details: dose 1-1000 nM, time 9-72 hrs
Integrin alpha-5/beta-1 [6] = biological target: T1, Integrin alpha-5/beta-1; assay: Agonist activity at integrin alpha5beta1 in human OV-MZ-6 cells assessed as increase in p-ERK1/2 expression at 1 uM incubated for 24 hrs by Western blot analysis; type: cell-based
Integrin alpha-5/beta-1 [7] = biological target: T1, Integrin alpha-5/beta-1; assay: Agonist activity at integrin alpha5beta1 in human OV-MZ-6 cells assessed as increase in p-FAK expression at 1 uM incubated for 24 hrs by Western blot analysis; type: cell-based
Integrin alpha-V/beta-6 [8] = biological target: T3, Integrin alpha-V/beta-6 (Homo sapiens, UniProt P06756+P18564); assay: Agonist activity at integrin alphaVbeta6 in human HN cells assessed as fold increase in p-FAK expression at 1 nM measured within 30 mins by Western blot analysis (reference value: 1); type: cell-based; details: filed as agonist
OV-MZ-6 [9] = assay: Inhibition of cell migration in human OV-MZ-6 cells expressing integrin alpha5beta1 assessed as delay in wound gap closure at 1 uM measured within 72 hrs by wound scratch assay; type: functional, cell-based
Integrin alpha-V/beta-6 [10] = biological target: T3, Integrin alpha-V/beta-6; assay: Agonist activity at integrin alphaVbeta6 in human HN cells assessed as fold increase in p-FAK expression at 1 uM measured within 30 mins by Western blot analysis (reference value: 1); type: cell-based; details: filed as agonist
Integrin alpha-5/beta-1 [11] = biological target: T1, Integrin alpha-5/beta-1; assay: Agonist activity at integrin alpha5beta1 in human OV-MZ-6 cells assessed as increase in FAK expression at 1 uM measured after 5 to 60 mins by Western blot analysis; type: cell-based; details: time 5-60 min
Integrin alpha-5/beta-1 [12] = biological target: T1, Integrin alpha-5/beta-1; assay: Agonist activity at integrin alpha5beta1 in human OV-MZ-6 cells assessed as increase in FAK expression at 1 nM measured after 30 to 60 mins by Western blot analysis; type: cell-based; details: time 30-60 min
OV-MZ-6 [13] = assay: Inhibition of cell adhesion in human OV-MZ-6 cells expressing integrin alpha5beta1 at 1 nM measured after 48 hrs by microscopic imaging analysis; type: functional, cell-based
Integrin alpha-V/beta-3 [14] = biological target: T2, Integrin alpha-V/beta-3; assay: Agonist activity at integrin alphaVbeta3 in human M21 cells assessed as increase in p-ERK1/2 expression at 1 uM incubated for 24 hrs by Western blot analysis; type: cell-based
OV-MZ-6 [15] = assay: Inhibition of cell migration in human OV-MZ-6 cells expressing integrin alpha5beta1 assessed as delay in wound gap closure at 1 nM measured after 9 to 72 hrs by wound scratch assay; type: functional, cell-based; details: time 9-72 hrs
Integrin alpha-5/beta-1 [16] = biological target: T1, Integrin alpha-5/beta-1; assay: Agonist activity at integrin alpha5beta1 in human OV-MZ-6 cells assessed as fold increase in p-FAK expression at 1 nM measured after 5 to 60 mins by Western blot analysis (reference value: 1); type: cell-based; details: filed as agonist, time 5-60 min
Integrin alpha-V/beta-3 [17] = biological target: T2, Integrin alpha-V/beta-3; assay: Competitive binding affinity to human Integrin alphaVbeta3 incubated for 1 hrs in presence of vitronectin by ELISA based spectrophotometric analysis; type: protein-complex assay
Integrin alpha-V/beta-6 [18] = biological target: T3, Integrin alpha-V/beta-6; assay: Competitive binding affinity to human Integrin alphaVbeta6 incubated for 1 hrs in presence of […] of TGF-beta1 by ELISA based spectrophotometric analysis; type: protein-complex assay
Integrin alpha-V/beta-3 [19] = biological target: T2, Integrin alpha-V/beta-3; assay: Agonist activity at integrin alphaVbeta3 in human M21 cells assessed as increase in FAK expression at 1 uM incubated for 24 hrs by Western blot analysis; type: cell-based
Integrin alpha-5/beta-1 [20] = biological target: T1, Integrin alpha-5/beta-1; assay: Agonist activity at integrin alpha5beta1 in human OV-MZ-6 cells assessed as increase in FAK expression at 1 uM incubated for 24 hrs by Western blot analysis; type: cell-based
HN [21] = assay: Effect on cell migration in human HN cells expressing alphaVbeta6 at 1 to 1000 nM measured after 48 hrs by microscopic imaging analysis; type: functional, cell-based; details: dose 1-1000 nM
Integrin alpha-V/beta-3 [22] = biological target: T2, Integrin alpha-V/beta-3; assay: Agonist activity at integrin alphaVbeta3 in human M21 cells assessed as increase in p-FAK expression at 1 uM incubated for 24 hrs by Western blot analysis; type: cell-based
OV-MZ-6 [23] = assay: Inhibition of cell migration in human OV-MZ-6 cells expressing integrin alpha5beta1 assessed as delay in wound gap closure at 1 to 1000 nM measured immediately by wound scratch assay; type: functional, cell-based; details: dose 1-1000 nM
Integrin alpha-5/beta-1 [24] = biological target: T1, Integrin alpha-5/beta-1; assay: Agonist activity at integrin alpha5beta1 in human OV-MZ-6 cells assessed as increase in FAK expression at 1 to 1000 nM measured after 5 to 60 mins by Western blot analysis; type: cell-based; details: dose 1-1000 nM, time 5-60 min
OV-MZ-6 [25] = assay: Inhibition of cell migration in human OV-MZ-6 cells expressing integrin alpha5beta1 assessed as delay in wound gap closure at 1 to 1000 nM measured after 72 hrs by wound scratch assay; type: functional, cell-based; details: dose 1-1000 nM
HN [26] = assay: Effect on cell migration in human HN cells expressing integrin alphaVbeta6 at 1 to 1000 nM measured after 9 to 24 hrs by wound scratch assay; type: functional, cell-based; details: dose 1-1000 nM, time 9-24 hrs
Integrin alpha-V/beta-3 [27] = biological target: T2, Integrin alpha-V/beta-3; assay: Agonist activity at integrin alphaVbeta3 in human M21 cells assessed as increase in ERK1/2 expression at 1 uM incubated for 24 hrs by Western blot analysis; type: cell-based
Integrin alpha-5/beta-1 [28] = biological target: T1, Integrin alpha-5/beta-1; assay: Agonist activity at integrin alpha5beta1 in human OV-MZ-6 cells assessed as increase in ERK1/2 expression at 1 uM incubated for 24 hrs by Western blot analysis; type: cell-based
Integrin alpha-V/beta-6 [29] = biological target: T3, Integrin alpha-V/beta-6; assay: Agonist activity at integrin alphaVbeta6 in human HN cells assessed as increase in FAK expression at 1 to 1000 nM measured within 60 mins by Western blot analysis; type: cell-based; details: filed as agonist, dose 1-1000 nM
[30] = Drug uptake in human M21 cells overexpressing integrin alphaVbeta3 at 1 uM measured at 60 to 300 mins by Hoechst 33342 staining based fluorescence analysis; type: ADME, cell-based; details: m21, 1 µM, time 60-300 min
[31] = Drug localization in cell membrane of human RKO cells overexpressing integrin alpha5beta1 at 1 uM measured at 30 mins by CellMask green staining based fluorescence analysis; type: ADME, cell membranes; details: 0.5 h
[32] = Drug localization in cell membrane of human RKO cells overexpressing integrin alpha5beta1 at 1 uM measured within 3 mins by CellMask green staining based fluorescence analysis; type: ADME, cell membranes; details: 0.05 h
[33] = Drug uptake in human RKO cells overexpressing integrin alpha5beta1 at 1 uM measured at 60 to 300 mins by Hoechst 33342 staining based fluorescence analysis; type: ADME, cell-based; details: time 60-300 min

- fold change (FC) (Integrin alpha-5/beta-1 [1]): 1.6
- Activity (Integrin alpha-V/beta-3 [3]): inactive
- Activity (Integrin alpha-5/beta-1 [6]): inactive
- Activity (Integrin alpha-5/beta-1 [7]): inactive
- fold change (FC) (Integrin alpha-V/beta-6 [8]): 4
- fold change (FC) (Integrin alpha-V/beta-6 [10]): 3
- Activity (Integrin alpha-5/beta-1 [11]): inactive
- Activity (Integrin alpha-5/beta-1 [12]): inactive
- Activity (Integrin alpha-V/beta-3 [14]; filed as agonist): Active
Structure (SMILES): C#CCCC(=O)NCCCOc1cc(C)c(C(=O)N[C@@H](CNC(=O)CNC(=O)c2cccc(NC(=N)N)c2)C(=O)O)c(C)c1
- inhibition (OV-MZ-6 [2]): Active
- Activity (Integrin alpha-V/beta-3 [4]): Not active; Slight Increase Compared To Control Observed
- inhibition (OV-MZ-6 [5]): Active
- inhibition (M21): inactive
- inhibition (OV-MZ-6 [9]): inactive
- inhibition (OV-MZ-6 [13]): inactive
- inhibition (OV-MZ-6 [15]): inactive

- fold change (FC) (Integrin alpha-5/beta-1 [16]): 2.9
- IC50 (Integrin alpha-V/beta-3 [17]): > 1000 nM
- IC50 (Integrin alpha-V/beta-6 [18]): 0.28 nM
- Activity (Integrin alpha-V/beta-3 [19]): inactive
- Activity (Integrin alpha-5/beta-1 [20]): inactive
- Activity (Integrin alpha-V/beta-3 [22]): inactive
- Activity (Integrin alpha-5/beta-1 [6]): inactive
- Activity (Integrin alpha-5/beta-1 [24]): inactive
- Activity (Integrin alpha-5/beta-1 [7]): inactive
- fold change (FC) (Integrin alpha-V/beta-6 [8]): 5
- fold change (FC) (Integrin alpha-V/beta-6 [10]): 6
- Activity (Integrin alpha-V/beta-3 [27]): inactive
- Activity (Integrin alpha-V/beta-3 [14]): inactive
- Activity (Integrin alpha-5/beta-1 [28]): inactive
- Activity (Integrin alpha-V/beta-6 [29]): Active; Slight Increase Observed
Structure (SMILES): CC(C)C[C@@H]1NC(=O)[C@H](CC(=O)O)NC(=O)CNC(=O)[C@H](CCCNC(=N)N)NC(=O)[C@H](Cc2ccccc2)NC(=O)[C@H](CCCCN)N(C)C(=O)[C@H]2CCCN2C(=O)[C@H](Cc2ccccc2)NC(=O)[C@H](C)NC1=O
- Activity (HN [21]): inactive
- inhibition (OV-MZ-6 [23]): Active
- inhibition (OV-MZ-6 [25]): inactive
- Activity (HN [26]): inactive

- Drug uptake [30]: Not_active
- Drug uptake [31]: Active
- Drug uptake [32]: Active
- Drug uptake [33]: Active
Structure (SMILES): Cc1cc(OCCCNC(=O)CCCCCNC(=O)CCCCC[N+]2=C(/C=C/C=C/C=C3/N(C)c4ccc5ccccc5c4C3(C)C)C(C)(C)c3c2ccc2ccccc32)cc(C)c1C(=O)N[C@@H](CNC(=O)CNC(=O)c1cccc(NC(=N)N)c1)C(=O)O
